Reference: PMC12095040, “GRK5 is required for adipocyte differentiation through ERK activation” (International Journal of Obesity (2005), 2024)

Molecular target: GRK5 (Homo sapiens, UniProt P34947)
Test: ADP-Glo luminescent kinase assay, casein substrate, […] ATP
Assay type: biochemical

Sequence of GRK5 (P34947 whole entry): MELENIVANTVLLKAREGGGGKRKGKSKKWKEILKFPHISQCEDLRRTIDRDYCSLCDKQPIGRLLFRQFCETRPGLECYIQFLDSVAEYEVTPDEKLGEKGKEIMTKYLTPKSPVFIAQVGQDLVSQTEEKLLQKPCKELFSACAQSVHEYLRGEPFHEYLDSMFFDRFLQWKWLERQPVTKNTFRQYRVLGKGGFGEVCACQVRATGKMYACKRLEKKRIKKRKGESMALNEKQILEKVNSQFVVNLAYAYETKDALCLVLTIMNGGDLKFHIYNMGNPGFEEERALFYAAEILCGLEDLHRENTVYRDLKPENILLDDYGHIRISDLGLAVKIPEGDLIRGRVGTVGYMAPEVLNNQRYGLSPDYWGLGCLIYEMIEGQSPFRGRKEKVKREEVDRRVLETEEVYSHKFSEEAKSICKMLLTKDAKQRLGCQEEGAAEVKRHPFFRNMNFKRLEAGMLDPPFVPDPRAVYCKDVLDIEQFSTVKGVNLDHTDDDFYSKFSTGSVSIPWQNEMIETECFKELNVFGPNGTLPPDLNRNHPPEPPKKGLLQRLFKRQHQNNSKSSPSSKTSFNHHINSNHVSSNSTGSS

Molecule COc1cc(Nc2cc3c(cn2)nc(-c2ccco2)n3C)cc(OC)c1OC [GRK5-IN-2] has an IC50 of 49.7 µM.
